# Assay results as given in patent US6033669A, “Methods for generating cytotoxic T cells and treatment of diseases thereby” (priority 1992, dated 2000).
# How the values were obtained:
# [1] = target: T1, H-2D^b (Mus musculus, UniProt P01899); experiment: MHC-1 upregulation on RMA-S cells (D^b); assay type: cell-based, murine; conditions: RMA-S cells with peptide NP366-374 (50 μM), 6 h; FIG. 8
# T1 sequence (P01899 25-362): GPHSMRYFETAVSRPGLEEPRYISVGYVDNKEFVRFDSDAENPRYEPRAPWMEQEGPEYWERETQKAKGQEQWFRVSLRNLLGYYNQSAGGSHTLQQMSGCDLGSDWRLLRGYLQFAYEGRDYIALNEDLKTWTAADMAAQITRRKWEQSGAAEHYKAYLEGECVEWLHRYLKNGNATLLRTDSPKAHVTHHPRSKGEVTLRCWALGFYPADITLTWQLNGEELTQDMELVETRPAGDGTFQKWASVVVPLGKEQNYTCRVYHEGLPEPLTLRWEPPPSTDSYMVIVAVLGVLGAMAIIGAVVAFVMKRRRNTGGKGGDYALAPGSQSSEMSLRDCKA
# T1 sequence (P01887 21-119 partner): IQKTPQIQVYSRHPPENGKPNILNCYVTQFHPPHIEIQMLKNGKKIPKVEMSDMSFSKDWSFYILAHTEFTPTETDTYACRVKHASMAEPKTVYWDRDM
# [2] = test system: EL4 and RMA-S cells; assay type: cell-based, mice; conditions: pronase treated peptide-coated cells incubated at 37° C.; data not shown
# [3] = test system: RMA-S cells; experiment: Membrane recycling of glycopeptide after pronase treatment; assay type: cell-based; conditions: pronase treated RMA-S cells, 37° C.; data not shown
# Procedure: Panel A: RMA-s cells were incubated for 24 hours at 26° C. to induce expression of empty D^b MHC-1 chains at the cell surface, and at 37° C., and stained for D^b expression. Panel B: Removal of D^b expression by pronase treatment of RMA-S cells, preincubated at 26° C. Pronase treatment for 2 h and 4 h. D^b removal is complete at 4 h. Panels C and E: 26° C. induced RMA-S cells were treated with the glycopeptides Gal2 -CSG11 (panel C) or Gal2 CAS10 (panel E), 300 μM for 2 h at 37° C., washed and stained for Gal2 expression. Panels D and F: Glycopeptide treated RMA-S cells as in panels C and E were pronase treated to remove Db and glycopeptide expression, washed and further incubated at 37° C. to allow re-expression of glycopeptides and stained for Gal2 expression.
# The capacity of the conjugate to be recycled may be assessed by incubating the cells (with bound conjugate) at 37° C. whereupon the glycopeptide will internalise. The temperature may then be lowered and the cells treated with a proteolytic enzyme (e.g. Pronase) to strip off exposed peptide/carbohydrate conjugate. On reheating, recycled conjugate may be detected by probing for the Gal2 epitope using the anti-Gal2 antibody.
# Described in FIGS. 10D and F.
smiles,measurement,setting,value
CCN(CC)CCCC(C)Nc1ccnc2cc(Cl)ccc12 (stereo not drawn) [chloroquine],effect on peptide mediated MHC-1 (H-2D^b) upregulation,[1],inhibits this upregulation
same,effect on return of susceptibility to CTL killing,[2],blocked
same,effect on return of the Gal2 epitope to the cell surface,[3],inhibited
